Assay results published in the NIST ThermoML archive (doi:10.1016/j.tca.2011.06.020).

Columns and labels:
[1] = 101 kPa, Liquid; for speed of sound: Sing-around technique in a fixed-path interferometer; for mass density: Vibrating tube method
[2] = xn = mol fraction of the nth substance listed; conditions: 101 kPa, Liquid; for speed of sound: Sing-around technique in a fixed-path interferometer; for mass density: Vibrating tube method

Cc1ccccc1N [2-methylaniline]
[1]
Conditions | mass density [kg/m3] | speed of sound [m/s]
298.15 K | 994.351 | 1602.6
303.15 K | 990.224 | 1577.8
308.15 K | 986.069 | 1558.4

CNC=O [N-methylformamide]
[1]
Conditions | mass density [kg/m3] | speed of sound [m/s]
298.15 K | 999.004 | 1432.9
303.15 K | 994.653 | 1417.7
308.15 K | 990.302 | 1402.5

CNC=O [N-methylformamide] + Cc1ccccc1N
[2], x2 = 0
Conditions | mass density [kg/m3] | speed of sound [m/s]
298.15 K | 999.004 | 1432.9
303.15 K | 994.653 | 1417.7
308.15 K | 990.302 | 1402.5

C1CCOCC1 [tetrahydropyran]
[1]
Conditions | mass density [kg/m3] | speed of sound [m/s]
298.15 K | 879.136 | 1269.9
303.15 K | 873.992 | 1246.8
308.15 K | 868.831 | 1224.5

C1CCOCC1 [tetrahydropyran] + CNC=O
[2], x1 = 1
Conditions | mass density [kg/m3] | speed of sound [m/s]
298.15 K | 879.136 | 1269.9
303.15 K | 873.992 | 1246.8
308.15 K | 868.831 | 1224.5

C1CCOCC1 [tetrahydropyran] + Cc1ccccc1N
[2], x2 = 0
Conditions | mass density [kg/m3] | speed of sound [m/s]
298.15 K | 879.136 | 1269.9
303.15 K | 873.992 | 1246.8
308.15 K | 868.831 | 1224.5
